{"source": "patent US10251937B2", "about": "“Retro-inverso analogs of spadin display increased antidepressant effects” (MEDINCELL, priority 2014, dated 2019)", "key": {"C57Bl/6J mice [1]": {"tested_on": "C57Bl/6J mice", "test": "Tail-immersion (tail flick) test, thermal pain", "assay_type": "in vivo", "settings": "10 μg/kg i.v., 30 min before test, n=10", "protocol": "Mice were i.v. injected with 10 μg/kg of spadin in a bolus of 100 μL or 100 μL of a saline solution (0.9% NaCl) 30 min before the beginning of the test. The tail was immersed in a water bath at 48° C. until withdrawal was observed (cut-off time: 30 s). Two separate withdrawal latency time determinations were averaged."}, "C57Bl/6J mice [2]": {"tested_on": "C57Bl/6J mice", "test": "Forced Swimming Test (FST) in naive mice", "assay_type": "in vivo", "settings": "for immobility time, FST, duration of action: 10 naive animals", "protocol": "Naïve male C57Bl/6J mice from 7 to 9 weeks old were used in all experiments (Janvier laboratory). Mice were housed 10 animals per cage under a 12-h light/12-h dark cycle (light on at 8:00 am), in a ventilated room at a temperature of 22±1° C. Animals had free access to water and food (A03; SAFE, Augy, France). All experiments were conducted according to policies on the care and use of laboratory animals of the Society for Neuroscience, and also with respect to national laws on animal use. The local Ethics Committee (CIEPAL) approved the experiments.\n(§1) Stock solutions were prepared of 2 mg/mL (10^-3M) in distilled water, and before injection spadin solution was diluted in NaCl 0.9% to obtain the different concentrations used for treatments. Corticosterone (Sigma-Aldrich, France) was dissolved in drinking water at the concentration of 3.5 mg/L in the presence of 4.5 g/L of beta-cyclodextrin. […] Fluoxetine (Sigma-Aldrich, France) was dissolved in drinking water at the dose of 80 mg/L and administered during 21 days. For i.p. administration, fluoxetine (TEVA Santé, France) was dissolved in NaCl 0.9% at a concentration of 0.75 mg/mL. The amount injected was 3 mg/kg. Spadin and analogues were administered by i.v. injection. For acute treatment, drugs were administered in a single 100 μL bolus 30 min prior to the beginning of the behavioral tests. For subchronic treatment drugs were injected during 4 consecutive days and behavioral tests were performed on day 5, without additional injection.\nThe animals were individually placed in a non-escapable cylinder (height 30 cm, diameter 15 cm) filled with 15 cm-water at 22±1° C. The trial was conducted for 6 min. The total period of immobility was manually measured during the last 4 min of the test. A mouse was considered immobile when it remained floating with only slight movements to keep its head above water."}, "[3]": {"target": "hERG (human Ether a go-go Related Gene) current IKr (Homo sapiens, UniProt Q12809)", "sequence (Q12809 whole entry)": "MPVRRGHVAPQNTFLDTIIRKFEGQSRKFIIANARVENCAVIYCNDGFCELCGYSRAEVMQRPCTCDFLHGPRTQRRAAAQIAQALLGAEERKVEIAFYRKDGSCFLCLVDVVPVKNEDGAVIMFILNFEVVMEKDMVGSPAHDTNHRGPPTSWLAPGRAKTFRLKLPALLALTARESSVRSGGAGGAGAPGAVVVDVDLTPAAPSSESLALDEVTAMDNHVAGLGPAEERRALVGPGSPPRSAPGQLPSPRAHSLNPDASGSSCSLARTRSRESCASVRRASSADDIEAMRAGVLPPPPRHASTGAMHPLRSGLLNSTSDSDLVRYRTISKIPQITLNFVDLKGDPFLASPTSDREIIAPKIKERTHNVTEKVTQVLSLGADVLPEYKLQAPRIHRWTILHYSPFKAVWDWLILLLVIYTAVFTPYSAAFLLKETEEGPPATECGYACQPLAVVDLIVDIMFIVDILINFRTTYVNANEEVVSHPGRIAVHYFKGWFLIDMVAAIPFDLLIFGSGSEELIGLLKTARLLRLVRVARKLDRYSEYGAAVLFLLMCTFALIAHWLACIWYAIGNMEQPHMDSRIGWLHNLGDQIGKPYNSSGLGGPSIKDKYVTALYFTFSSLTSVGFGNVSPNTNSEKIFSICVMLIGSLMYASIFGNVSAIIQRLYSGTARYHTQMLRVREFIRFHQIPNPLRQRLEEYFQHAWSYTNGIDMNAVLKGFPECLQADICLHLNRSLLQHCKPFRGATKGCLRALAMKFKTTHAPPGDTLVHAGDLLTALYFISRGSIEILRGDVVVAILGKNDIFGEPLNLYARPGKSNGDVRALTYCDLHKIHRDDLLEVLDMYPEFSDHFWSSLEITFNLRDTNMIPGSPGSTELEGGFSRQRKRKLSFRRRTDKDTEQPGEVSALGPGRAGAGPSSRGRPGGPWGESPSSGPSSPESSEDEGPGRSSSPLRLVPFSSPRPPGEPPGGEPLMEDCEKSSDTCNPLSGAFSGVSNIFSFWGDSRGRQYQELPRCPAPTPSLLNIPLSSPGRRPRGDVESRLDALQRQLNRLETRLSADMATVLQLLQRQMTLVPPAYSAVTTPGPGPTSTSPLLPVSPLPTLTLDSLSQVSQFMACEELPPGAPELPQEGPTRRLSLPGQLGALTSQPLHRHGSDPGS", "test": "Cardiac IKr (hERG) current, whole cell patch clamp in transfected HEK cells", "method": "HEK-293 native cells were grown in serum in an atmosphere of 95% air/5% CO2 in Dulbecco's modified Eagle's medium supplemented with 10% (v/v) heat inactivated fetal bovine containing 1% (v/v) of penicillin/streptomycin and Glutamax×1. Cells were plated at a density of 20000 cells/35 mm dish and after 24 h cells were transfected using the JetPEI® method (Polyplus, France) with 25 ng/35 mm dish of p-IRES-HERG channel vector. Patch clamp experiments were carried out 48 h after transfection\nAll electrophysiological recordings were performed in whole cell configuration of the patch clamp technique. Each current was evaluated by using a RK 400 patch clamp amplifier (Axon Instrument, USA), low-pass filtered at 3 kHz and digitized at 10 kHz using a 12-bit analog-to-digital converter digidata (1322 series, Axon Instrument, USA). All current amplitudes are expressed in current densities. Results were expressed as mean±standard error of the mean (SEM). […] The bath solution contained 150 mM NaCl, 5 mM KCl, 3 mM MgCl2, 1 mM CaCl2 and 10 mM HEPES adjusted to pH 7.4 with NaOH. The pipette solution contained 155 mM KCl, 3 mM MgCl2, 5 mM EGTA and 10 mM HEPES adjusted to pH 7.2 with KOH. […] All experiments were performed at room temperature (21-22° c.). Stimulation protocols and data acquisition were carried out using a microcomputer (Dell Pentium) with a commercial software and hardware (pClamp 8.2). Currents were recorded by voltage clamp steps to membrane potentials of −100 to +60 mV in 20 mV steps applied from a holding potential of −80 mV. Duration of depolarization pulses were 0.825 ms, and the pulse cycling rate was 5 sec. […] Cells were continuously superfused with a microperfusion system. […] Tail currents were generated by repolarization to −40 mV. […] IKR currents were activated by voltage clamp steps of membrane potentials from −100 to +100 mV in 10 mV steps applied from a holding potential of +80 mV and tail currents were generated by a repolarization to +40 mV. […] The amplitudes of IKS and IKR currents were calculated at both the end of the first pulse and the peak of the tail pulse."}, "C57Bl/6J mice [4]": {"tested_on": "C57Bl/6J mice", "test": "Novelty Suppressed Feeding (NSF) test", "assay_type": "in vivo", "settings": "10 μg/kg i.v. daily for 4 days, test on day 5", "protocol": "as §1\nThe NSF paradigm is a two day test protocol. Day one, mice were deprived from food. Day two mice were placed in a highly brightly lit area, in a plastic box (45×45×20 cm), with a floor covered with wooden bedding. The test was carried out during a 10 min period; during this time the latency to eat was measured. During the test a single pellet of food was placed in the center of the box, on a white platform."}, "[5]": {"settings": "0 mV, in the presence of 10 μM, n=5"}}, "note": "Square brackets hold non-standard residues; d marks the D form. Peptide text beside a SMILES is read from it."}
{"smiles": "CC[C@@H](C)[C@@H](NC(=O)CNC(=O)[C@H](NC(=O)[C@@H](CO)NC(=O)[C@@H](Cc1c[nH]c2ccccc12)NC(=O)CNC(=O)[C@@H](CC(C)C)NC(=O)[C@@H](CCCNC(=N)N)NC(C)=O)C(C)C)C(=O)N1CCC[C@@H]1C(=O)NCC(=O)N[C@H](CO)C(=O)N[C@H](Cc1c[nH]c2ccccc12)C(=O)N[C@H](CCCNC(=N)N)C(=O)N1CCC[C@@H]1C(=O)N[C@H](CC(C)C)C(=O)N1CCC[C@@H]1C(=O)N[C@H](C)C(N)=O", "note": "[Analog 3, Ac-rlGwsvGipGswrplpa-NH2] (Ac-[dR][dL]G[dW][dS][dV]G[dI][dP]G[dS][dW][dR][dP][dL][dP][dA]-NH2)", "values": [{"measurement": "tail withdrawal time", "setting": "C57Bl/6J mice [1]", "result": "11.32 ± 1.04", "unit": "s"}, {"measurement": "immobility time, FST, acute treatment", "setting": "C57Bl/6J mice [2]; 10 μg/kg acute i.v., measured 30 minutes after injection, n=10", "result": "135.10 ± 8.11", "unit": "s"}, {"measurement": "immobility time, FST, subchronic treatment", "setting": "C57Bl/6J mice [2]; 10 μg/kg i.v. once a day for 4 days, test on day 5", "result": "114.9 ± 9.82", "unit": "s"}, {"measurement": "immobility time, FST, duration of action", "setting": "C57Bl/6J mice [2]; 1 hour after i.v. injection", "result": "123.4 ± 7.0", "unit": "s"}, {"measurement": "immobility time, FST, duration of action", "setting": "C57Bl/6J mice [2]; 16 hours after i.v. injection", "result": "129.6 ± 12.7", "unit": "s"}, {"measurement": "duration of activity in vivo compared to Analog 8", "setting": "C57Bl/6J mice [2]; FST (FIG. 4B)", "result": "active for longer duration in vivo"}, {"measurement": "IKr current density at end of first pulse", "setting": "[3]; [5]", "result": "224.48±35.94", "unit": "pA/pF"}, {"measurement": "IKr tail current density", "setting": "[3]; [5]", "result": "212.99±38.38", "unit": "pA/pF"}, {"measurement": "effect on currents generated by IKr channels expressed in HEK cells", "setting": "[3]; 10 μM", "result": "did not modify currents"}, {"measurement": "latency to feed, NSF", "setting": "C57Bl/6J mice [4]", "result": "143.88 ± 23.42", "unit": "s"}]}
